Where a name gives a salt, the structure may show the parent alone.
Experiments:
Assay in all cases: viability inhibition at highest dose (% inhibition); higher = more growth inhibition
BT-474 Tam1 = settings: 4-OH-tamoxifen in medium 1 µM; 72 h
Procedure: (§1)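 Percent inhibition of viability (CellTiter-Glo, 72 h) at the highest tested concentration (D5), normalised to DMSO (0%) and 100 µM benzethonium chloride (100%). Resistant lines and the 'in 1µM tamoxifen' arms were tested in 1 µM 4-OH-tamoxifen.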

BT-474 Tam2 = settings: 4-OH-tamoxifen in medium 1 µM; 72 h
Procedure: as §1

BT-474 = settings: 72 h
Procedure: as §1

MCF-7 Tam1 = settings: 4-OH-tamoxifen in medium 1 µM; 72 h
Procedure: as §1

MCF-7 = settings: 72 h
Procedure: as §1

T-47D Tam1 = settings: 4-OH-tamoxifen in medium 1 µM; 72 h
Procedure: as §1

T-47D Tam2 = settings: 4-OH-tamoxifen in medium 1 µM; 72 h
Procedure: as §1

T-47D = settings: 72 h
Procedure: as §1

ZR-75-1 Tam1 = settings: 4-OH-tamoxifen in medium 1 µM; 72 h
Procedure: as §1

ZR-75-1 Tam2 = settings: 4-OH-tamoxifen in medium 1 µM; 72 h
Procedure: as §1

ZR-75-1 = settings: 72 h
Procedure: as §1

SMILES	viability inhibition at highest dose (BT-474 Tam1)	viability inhibition at highest dose (BT-474 Tam2)	viability inhibition at highest dose (BT-474; 4-OH-tamoxifen in medium 0 µM)	viability inhibition at highest dose (BT-474; 4-OH-tamoxifen in medium 1 µM)	viability inhibition at highest dose (MCF-7 Tam1)	viability inhibition at highest dose (MCF-7; 4-OH-tamoxifen in medium 0 µM)	viability inhibition at highest dose (MCF-7; 4-OH-tamoxifen in medium 1 µM)	viability inhibition at highest dose (T-47D Tam1)	viability inhibition at highest dose (T-47D Tam2)	viability inhibition at highest dose (T-47D; 4-OH-tamoxifen in medium 0 µM)	viability inhibition at highest dose (T-47D; 4-OH-tamoxifen in medium 1 µM)	viability inhibition at highest dose (ZR-75-1 Tam1)	viability inhibition at highest dose (ZR-75-1 Tam2)	viability inhibition at highest dose (ZR-75-1; 4-OH-tamoxifen in medium 0 µM)	viability inhibition at highest dose (ZR-75-1; 4-OH-tamoxifen in medium 1 µM)
CN1CC[C@H](c2c(O)cc(O)c3c(=O)cc(-c4ccccc4Cl)oc23)[C@H](O)C1 [Alvocidib (Flavopiridol)] (drug 10000 nM)	96.8	89.5	9.07	46.1	30.1	62.9	65	57.8	38.7	29.3	-0.409	49.9	55.9	50.1	46.6
CC[C@@H]1C(=O)N(C)c2cnc(Nc3ccc(C(=O)NC4CCN(C)CC4)cc3OC)nc2N1C1CCCC1 [BI 2536] (drug 1000 nM)	27.9	11.8	26	48.3	7.18	39	29.9	30.3	34	29.2	19.9	26.8	21.6	12.7	26.7
CCc1c(C(=O)C(N)=O)c2c(OCC(=O)O)cccc2n1Cc1ccccc1 [Varespladib] (drug 10000 nM)	-12.8	-5.77	0.192	-17.3	-3.81	13.3	-9.89	-7.33	-7.24	-1.77	-10.9	-2.44	-6.3	-0.701	-2.07
O=C(CCCCCCC(=O)Nc1ccc([C@H]2O[C@@H](CSc3nc(-c4ccccc4)c(-c4ccccc4)o3)C[C@@H](c3ccc(CO)cc3)O2)cc1)NO [Tubacin] (drug 10000 nM)	21.5	33.8	28.3	84.7	22.1	55.1	67.2	45.1	39.4	57.8	90.2	32.9	19.2	18.1	24.4
CC/C(=C(\c1ccccc1)c1ccc(OCCN(C)C)cc1)c1ccccc1 [Tamoxifen citrate] (drug 10000 nM)	95.3	93.8	35.7	91.4	28.6	10.6	78.6	15.1	50	4.58	10.2	17.8	26.3	9.17	38.8
CS(=O)(=O)N1CCN(Cc2cc3nc(-c4cccc5[nH]ncc45)nc(N4CCOCC4)c3s2)CC1 [Pictilisib (GDC-0941)] (drug 10000 nM)	86.1	82.5	63.6	90.6	64.4	76.8	81.6	70.6	67.4	68.5	76.6	76.9	76.1	64.3	60.7
CS(=O)(=O)CCNCc1ccc(-c2ccc3ncnc(Nc4ccc(OCc5cccc(F)c5)c(Cl)c4)c3c2)o1 [Lapatinib] (drug 1000 nM)	96.8	96.2	76.6	95.8	0.111	6.77	17.5	14.6	16.8	5.41	-0.526	5.35	-5.73	0.392	-2.73
Cc1c(C(=O)Nc2ccc(N3C[C@@H](C)O[C@@H](C)C3)nc2)cccc1-c1ccc(OC(F)(F)F)cc1 [Erismodegib (NVP-LDE225)] (drug 10000 nM)	15.9	19	18	41.1	15.1	23.2	14.6	4.09	19.2	19.8	8.8	13.1	7.11	-0.79	17.1
C/C(=C\c1csc(C)n1)[C@@H]1C[C@@H]2O[C@]2(C)CCC[C@H](C)[C@H](O)[C@@H](C)C(=O)C(C)(C)[C@@H](O)CC(=O)O1 [Patupilone  (Epothilone B)] (drug 1000 nM)	38.2	28	49.2	56.4	-9.25	24.1	21.5	22	33.4	38.1	8.65	1.36	1.47	8.28	-8.45
C[C@@H](Oc1cc(-c2cnn(C3CCNCC3)c2)cnc1N)c1c(Cl)ccc(F)c1Cl [Crizotinib] (drug 1000 nM)	4.07	7.24	-4.38	-15.8	-0.481	0.562	6.55	0.597	2.79	-19.1	-7.52	0.927	0.924	-7.38	-5.41
CC(C)(C)c1cnc(CSc2cnc(NC(=O)C3CCNCC3)s2)o1 [SNS-032] (drug 10000 nM)	88.7	87.2	10.3	33.1	31.3	47.4	51.2	49.1	32	22.4	4.07	45.3	52.6	42.4	43.3
C/C(=C\c1csc(C)n1)[C@@H]1C[C@@H]2O[C@]2(C)CCC[C@H](C)[C@H](O)[C@@H](C)C(=O)C(C)(C)[C@@H](O)CC(=O)N1 [Ixabepilone] (drug 1000 nM)	4.12	-14.8	-8.54	41	-16.3	33.8	26.2	30	33.3	45.1	23	-3.74	-5.09	-11.9	-5.49
Cc1c(CN2CCN(C(=O)[C@H](C)O)CC2)sc2c(N3CCOCC3)nc(-c3cnc(N)nc3)nc12 [GDC-0980] (drug 10000 nM)	87.4	84.3	60.1	86.3	52.1	74	73.4	67.1	64	73.8	72.1	66.6	72.1	64.4	56.3
